Data published in patent US5504097A, “N-hydroxyureas as 5-lipoxygenase inhibitors and inhibitors of oxidative modification of low density lipoprotein” (American Home Products Corporation, priority 1995, dated 1996).
Counter-ions that a name gives are not always drawn.

Assays:
5-Lipoxygenase = target: T1, 5-Lipoxygenase (Homo sapiens, UniProt P09917); experiment: Inhibition of 5-Lipoxygenase in Human Whole Blood (LTB4, calcium ionophore A23187); format: cell-based
T1 construct: from tissue; host or cells: whole blood of male human donors (endogenous enzyme of the leukocytes)
T1 sequence (P09917 1-674): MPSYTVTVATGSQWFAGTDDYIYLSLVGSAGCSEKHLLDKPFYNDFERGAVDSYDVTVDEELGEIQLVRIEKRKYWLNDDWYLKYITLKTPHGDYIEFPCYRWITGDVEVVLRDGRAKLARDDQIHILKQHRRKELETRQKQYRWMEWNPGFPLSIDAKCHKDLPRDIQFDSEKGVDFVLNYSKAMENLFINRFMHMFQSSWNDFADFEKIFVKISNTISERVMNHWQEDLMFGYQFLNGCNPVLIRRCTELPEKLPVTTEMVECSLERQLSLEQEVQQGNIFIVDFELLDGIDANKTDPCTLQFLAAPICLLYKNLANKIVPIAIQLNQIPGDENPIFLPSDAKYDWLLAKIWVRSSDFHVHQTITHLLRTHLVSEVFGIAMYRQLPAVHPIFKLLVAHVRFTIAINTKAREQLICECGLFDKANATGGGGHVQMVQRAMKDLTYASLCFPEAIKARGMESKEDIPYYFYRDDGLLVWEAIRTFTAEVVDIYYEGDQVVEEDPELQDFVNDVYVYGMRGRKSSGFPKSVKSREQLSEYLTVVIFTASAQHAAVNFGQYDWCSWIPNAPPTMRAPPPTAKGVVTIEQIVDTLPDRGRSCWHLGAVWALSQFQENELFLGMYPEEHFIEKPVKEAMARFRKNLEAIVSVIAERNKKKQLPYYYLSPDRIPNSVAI
Method: 1. Inhibition of 5-Lipoxygenase in Human Whole Blood
Blood is obtained in 50-100 ml quantities from male donors. White blood cell counts and differentials are made. Two ml of blood are placed in a 15 ml polypropylene test tube. Test compounds are solubilized in dimethylsulfoxide and diluted in 1:10 in 10% bovine serum albumin in phosphate buffered saline, pH 7.4 resulting in a final dimethylsulfoxide concentration of 0.1% in the blood. Then, solutions of test compounds are added to the blood in a shaking water bath at 37° C. for 10 minutes prior to the addition of 30 μM calcium ionophore (A23187, Sigma). After ionophore administration, whole blood samples are mixed and incubated for 20 minutes at 37° C. in a shaking water bath. Incubation is terminated by placing samples in an ice bath and immediately adding ethylene glycol-bis-(β-aminoethyl ether)-N, N,N',N'-tetraacetic acid (10 mM). Samples are mixed and centrifuged at 1200× g for 15 minutes at 4° C. Preparation of samples for evaluation by RIA or ELISA is carried out by the following protocol. Plasma is removed from sample tubes, placed in 15 ml polypropylene test tubes containing 8 ml methanol, and then vortexed to precipitate protein. Samples are stored at -70° C. overnight. The next day, samples are centrifuged at 200× g for 15 minutes at 4° C. to pellet the precipitate. Samples are dried in a Savant SpeedVac Concentrator, Model SVC 200H, reconstituted to original volume with ice cold RIA or ELISA buffer, and stored at -70° C. until assayed. The assay for eicosanoids (LTB4, T×B2, and PGE2) is performed as described by the manufacturer of the ^3 H!-RIA kit or ELISA kit (LTB4 -Amersham, T×B2 and PGE2 -Caymen Chemical).
The total eicosanoid level in 2 ml of blood is calculated and reported as ng/10^6 neutrophils. Significance is determined by a one-way analysis of variance with least significant difference (LSD) comparisons to control (p≤0.05) and IC50 's (μM) are determined by regression analysis (Finney, 1978). Drug effects are expressed as percent change from control values.

[1] = system: LT-dependent bronchoconstriction; experiment: Inhibition of Bronchoconstriction in Guinea Pigs Induced by Exogenously Administered Antigen (ovalbumin); format: in vivo, Male guinea pigs; details: Cavia porcellus, iv, 5 min; 10 mg/kg
Method: 4. Inhibition of Brochoconstriction in Guinea Pigs Induced by Exogenously Administered Antigen
Male guinea pigs (Charles River, Wilmington, Mass.) were sensitized 3-4 weeks prior to antigen challenge by administration of 2 i.m. injections of ovalbumin, 1 into each hind limb (35 mg total). Sensitized animals (500-600 g) were fasted overnight prior to experimentation. Conscious animals were then dosed p.o. with drug or vehicle alone (0.5% Tween 80 in H2 O) at the indicated times prior to antigen challenge, or anesthetized animals were dosed i.v. with drug or vehicle alone (DMSO) 5 min prior to antigen challenge. Animals were anesthetized by urethane (2.8 g/kg i.p.). A carotid artery and jugular vein were cannulated to allow for the monitoring of blood pressure and the administration of drugs, respectively. The trachea was then cannulated and connected to a Harvard Apparatus rodent ventilator (S. Natick, Mass). Spontaneous respiration was abolished by the administration of succinylcholine (2.5 mg/kg i.v.). The animals were then ventilated with room air at a rate of 65 breaths per min. Airway inflation pressure was measured using a Statham pressure transducer (Gould Instruments, Cleveland, Ohio) connected to the tracheal cannula via a side-arm and recorded on a Grass Instruments recorder (Quincy, Mass). The tidal volume (approximately 10 cc/kg) was adjusted to give a baseline inflation pressure of 8-10 cm H2 O at end inspiration. Animals were then allowed 20 min to stabilize.
Following the stabilization period, animals were given i.v. injections of pyrilamine (5 mg/kg), propranolol (0.1 mg/kg) and indomethacin (10 mg/kg) at 15, 10 and 5 min, respectively, prior to antigen challenge. This pretreatment results in an LT-dependent bronchoconstriction following antigen challenge, which was accomplished by i.v. administration of ovalbumin (10 mg/kg). Only one bronchoconstriction per animal was induced. End-inspiratory inflation pressure (in cm H2 O over baseline) was measured at 5 min post-antigen challenge. A mean value and standard error for the % inhibition of control bronchoconstriction in each drug-treated group was then calculated.

Lipoxygenase = experiment: Ex-Vivo Measurement of Lipoxygenase Inhibition in Orally Dosed Rats (LTB4 in A23187-stimulated blood); set-up: species or system Male Sprague Dawley rats; details: 10 mg/kg, p.o.; pretreatment period 6 hr
Method: 2. Ex-Vivo Measurement of Lipoxygenase Inhibition in Orally Dosed Rats
After an interval of 3 or 6 hours, the rats were anesthetized with metofane (n=4/group) and blood collected in heparinized tubes. White blood cell counts and differentials were made. One ml of blood from each animal was placed in a 5 ml plastic tube in a shaker bath at 37° C. A23187 at a final concentration of 10 μM was added to the blood and the blood vortexed and incubated for 15 min at 37° C. with gentle shaking. Incubation was terminated by vortexing sample and centrifuging immediately at 1200× G for 15 min at 4° C. The plasma was transferred to 15 ml plastic tubes each containing 8 ml of methanol to precipitate protein followed by vortexing. The samples were stored at -70° C. overnight and the next day the samples were centrifuged at 800× G for 15 min to pellet the precipitate. The samples were dried in a Savant SpeedVac Concentrator Model SVC 200H and reconstituted to the original volume with cold RIA or ELISA buffer. The reconstituted samples were stored at -70° C. until assayed. The assay for LTB4 was performed according to the directions of the ^3 H!RIA kit or ELISA kit (Seragen). The total metabolite level in 1 ml of blood is calculated and reported as ng/10^6 neutrophils. Significance is determined by a one-way analysis of variance with LSD comparisons to control (p≤0.05).

Row | inhibition at 1 µM (5-Lipoxygenase) [%] | inhibition at 10 µM (5-Lipoxygenase; 10 μM) [%] | SMILES | inhibition in vivo at 10 mg/kg [1] [%] | further results
1 | 74 | – | Cc1oc(-c2ccc(OCC(F)(F)F)cc2)nc1COc1ccc(CN(O)C(N)=O)cc1 [Example 7, 1-Hydroxy-1-4-5-methyl-2-(4-trifluoroethoxy-phenyl)-oxazol-4-ylmethoxy!-benzyl!-urea] | 24 | –
2 | – | 57 | Cc1oc(-c2ccccc2)nc1COc1ccc(C(C)N(O)C(N)=O)cc1 (stereo not shown) [Example 8, 1-Hydroxy-1-1- -4(5-methyl-2-phenyl-oxazol-4-ylmethoxy)-phenyl!-ethyl!-urea] | – | –
3 | 32 | – | NC(=O)N(O)Cc1ccc(OCc2coc(-c3ccc(C(F)(F)F)cc3)n2)cc1 [Example 11, 1-Hydroxy-1-4-2-(4-trifluoromethyl-phenyl)-oxazol-4-ylmethoxy!-benzyl!-urea] | – | % Inhibition of LTB4 (Lipoxygenase): 68%
4 | 56 | – | NC(=O)N(O)Cc1ccc(OCc2csc(-c3ccc(C(F)(F)F)cc3)n2)cc1 [Example 12, 1-Hydroxy-1-4-2-(4-trifluoromethyl-phenyl)-thiazol-4-yl-methoxy!-benzyl!urea] | 30 | –
5 | 38 | – | O=C(Nc1ccc(F)cc1)N(O)Cc1ccc(OCc2csc(-c3ccc(C(F)(F)F)cc3)n2)cc1 [Example 13, 3-(4-Fluoro-phenyl)-1-hydroxy-1-4-2-(4-trifluoromethyl-phenyl)-thiazol-4-ylmethoxy!-benzyl!-urea] | – | –
6 | 57 | – | NC(=S)N(O)Cc1ccc(OCc2csc(-c3ccc(Cl)cc3)n2)cc1 [Example 15, 1-Hydroxy-1-4-2-(4-chloro-phenyl)-thiazol-4-ylmethoxy!-benzyl!-thiourea] | 21 | –
7 | – | 36 | CCCCCCNC(=O)N(O)Cc1ccc(OCc2csc(-c3ccc(Cl)cc3)n2)cc1 [Example 16, 1-4-2-(4-chloro-phenyl)-thiazol-4-ylmethoxy!-benzyl!-3-hexyl-1-hydroxy-urea] | – | –
8 | 56 | – | COc1ccc(-c2nc(COc3ccc(CN(O)C(N)=O)cc3)cs2)cc1 [Example 17, 1-Hydroxy-1-4-2-(4-methoxy-phenyl)-thiazol-4-ylmethoxy!-benzyl!-urea] | 50 | % Inhibition of LTB4 (Lipoxygenase): 69%
9 | – | 86 | Cc1oc(-c2ccccc2)nc1COc1ccc(C(O)CN(O)C(N)=O)cc1 (stereo not shown) [Example 18, 1-Hydroxy-1-2-hydroxy-2-4-(5-methyl-2-phenyl-oxazol-4-ylmethoxy)-phenyl!-ethyl!-urea] | – | –
10 | – | 50 | Cc1oc(-c2ccc(C(F)(F)F)cc2)nc1COc1ccc(CN(O)C(=O)NN)cc1 [Example 19, 4-Hydroxy-4-4-5-methyl-2-(4-trifluoromethyl-phenyl)-oxazol-4-ylmethoxy!-benzyl!-semicarbazide] | – | –
11 | – | 78 | CC(C)=NNC(=O)N(O)Cc1ccc(OCc2nc(-c3ccc(C(F)(F)F)cc3)oc2C)cc1 [Example 20, 1-Isopropylidine-4-hydroxy-4-4-5-methyl-2-(4-trifluoromethylphenyl)oxazol-4-ylmethoxy!-benzyl!-semicarbazone] | – | –
12 | – | 94 | NNC(=O)N(O)Cc1ccc(OCc2csc(-c3ccccc3)n2)cc1 [Example 21, 4-Hydroxy-4-4-(2-phenyl-thiazol-4-ylmethoxy)-benzyl!-semicarbazide] | – | –
13 | – | – | NNC(=O)N(O)Cc1ccc(OCc2csc(-c3ccccc3)n2)cc1 [Example 22, 4-Hydroxy-4-4-(2-phenyl-thiazol-4-ylmethoxy)-benzyl!-semicarbazide hydrochloride] | – | % Inhibition of LTB4 (5-Lipoxygenase; 10 μM, hydrochloride): 80%
